Data reported in patent publication US9878986B2, “Compounds for selective histone deacetylase inhibitors, and pharmaceutical composition comprising the same” (CHONG KUN DANG PHARMACEUTICAL CORP., priority 2013, dated 2018).

Columns and labels:
[1] = target: T1, HDAC 10 (Homo sapiens, UniProt Q969S8); assay: HDAC panel by Reaction Biology Corp., HDAC 10; type: biochemical; conditions: read-out: HDAC inhibitory activities, HDAC 10
T1 construct: Reaction Biology Corp
T1 sequence (Q969S8 1-669): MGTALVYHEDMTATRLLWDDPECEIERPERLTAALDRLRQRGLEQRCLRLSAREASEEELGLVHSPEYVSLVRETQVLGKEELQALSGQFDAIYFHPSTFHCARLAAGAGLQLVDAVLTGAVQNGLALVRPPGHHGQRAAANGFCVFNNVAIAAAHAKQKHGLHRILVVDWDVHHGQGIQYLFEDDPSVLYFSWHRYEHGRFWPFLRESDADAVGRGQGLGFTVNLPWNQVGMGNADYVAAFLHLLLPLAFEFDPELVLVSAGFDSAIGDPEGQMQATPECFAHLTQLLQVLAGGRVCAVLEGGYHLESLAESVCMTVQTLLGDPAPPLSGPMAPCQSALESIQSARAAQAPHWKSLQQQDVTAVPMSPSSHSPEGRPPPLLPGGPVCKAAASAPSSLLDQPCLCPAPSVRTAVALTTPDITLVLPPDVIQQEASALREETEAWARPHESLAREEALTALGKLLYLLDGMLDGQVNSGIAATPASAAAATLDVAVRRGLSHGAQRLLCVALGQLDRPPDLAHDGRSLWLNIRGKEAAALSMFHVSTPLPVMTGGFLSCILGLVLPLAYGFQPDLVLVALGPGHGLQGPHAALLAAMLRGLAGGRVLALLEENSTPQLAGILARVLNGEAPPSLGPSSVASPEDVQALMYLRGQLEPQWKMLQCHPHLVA
Text: (§1) The inhibitory activities of Compounds 255 and 374 on all HDACs were confirmed (by Reaction Biology Corp.).

[2] = target: T2, HDAC 11 (Homo sapiens, UniProt Q96DB2); assay: HDAC panel by Reaction Biology Corp., HDAC 11; type: biochemical; conditions: read-out: HDAC inhibitory activities, HDAC 11
T2 construct: Reaction Biology Corp
T2 sequence (Q96DB2 1-347): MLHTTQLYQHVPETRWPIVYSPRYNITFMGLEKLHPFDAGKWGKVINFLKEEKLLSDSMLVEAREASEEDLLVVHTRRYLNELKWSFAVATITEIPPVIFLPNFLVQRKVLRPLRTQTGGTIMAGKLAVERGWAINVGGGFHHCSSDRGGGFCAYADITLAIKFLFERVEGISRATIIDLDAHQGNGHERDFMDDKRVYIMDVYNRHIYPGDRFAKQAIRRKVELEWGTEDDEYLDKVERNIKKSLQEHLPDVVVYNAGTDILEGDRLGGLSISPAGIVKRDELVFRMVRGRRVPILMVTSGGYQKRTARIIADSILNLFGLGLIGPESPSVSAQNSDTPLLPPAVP
Text: as §1

[3] = system: tubulin acetylation (HDAC6) in RPMI8226 cells; assay: Acetylation of Tubulin in cells by Western blot; type: cell-based; conditions: for concentration at which tubulin acetylation (HDAC6) was expressed: 24 hours
Protocol: (§2) To determine the selectivity for HDAC6 in cells, the acetylation levels of Tubulin, Histone H3 and Histone H4 depending on the concentration of compounds were measured by Western blot.
(§3) RPMI8226 (1.0×10^6 cells/well) cells were seeded on six-well plates and treated with drugs (Compounds 255 and 374) at each concentration. After 24 hours, the proteins were extracted with RIPA buffer and quantified by the Bradford method. 25 μg of protein was lysed in sample buffer, electrophoresed on a 4-12% gradient gel, and then transferred to nitrocellulose membranes for 50 minutes. Then transferred protein was blocked with 5% skim milk for 1 hour. Anti-acetyl H3 (1:2,000), anti-acetyl H4 (1:5,000), anti-acetyl tubulin (1:5,000), and anti-β-actin antibody (1:10,000) were added into 5% skim milk, and the membranes were immersed in the skim milk, reacted at 4° C. for 16 hours, and then washed three times for 10 minutes each with 1×TBS-T. Then, IgG-HRP antibody (1:5,000) was added into 5% skim milk, and then the membranes were immersed in the skim milk, reacted at room temperature for 40 minutes, and then washed three times for […] each with 1×TBS-T. Then, the acetylation levels were determined with a LAS 3000 using ECL solution.
The acetylation of tubulin, histone H3 and Histone H4 on RPMI8226 cells (1.0×10^6 cells/well) derived from myeloma was determined in the same manner as the cell determination in Example 1.

[4] = system: histone acetylation (HDAC1) in RPMI8226 cells; assay: Acetylation of Histone H3 and Histone H4 in cells by Western blot; type: cell-based; conditions: 24 hours
Protocol: as §2
as §3, with “solution. […]” for “solution.”

[5] = system: collagen-induced arthritis models; assay: Collagen-induced arthritis models; type: in vivo, DBA/1J mice; conditions: for arthritis symptoms improved by: versus vehicle group
Protocol: An emulsion was prepared by mixing bovine collagen type II (Chondrex) and complete Freund's adjuvant (Chondrex) at a ratio of 1:1 until the […] using a 1 ml pipette. Each 100 μL of emulsion was intradermally injected into the tail of DBA/1J mice for the first immunization. After 21 days, an emulsion was prepared by mixing bovine collagen type II and incomplete Freund's adjuvant (Chondrex) at a ratio of 1:1 by the same method as above. Each of 100 μL of emulsion was intradermally injected into the upper part of the tail of DBA/1J mice for the second boosting immunization. After the second boosting immunization, the mice were grouped according to body weight, the test drug was administered to each group, and the effects of the test drugs were measured by measuring the clinical score and the body weight. The clinical scores were assigned from 0 to 4, and the total clinical score was determined by evaluating the feet of each mouse and summing up the scores (normal: 0, most severe edema: 16). That is, the efficacy in the arthritis models was evaluated with the severity of edema of the joint, and a higher score was assigned to more severe edema.

[6] = system: adjuvant-induced arthritis models; assay: Adjuvant-induced arthritis models; type: in vivo, Lewis rat; conditions: for clinical score: intraperitoneally, score 0 to 16; for arthritis symptoms improved by: 3, 10 and 30 mg/kg twice a day, versus vehicle group; for efficacy compared with the control compound Tofacitinib: clinical score
Protocol: Complete Freund's Adjuvant (Chondrex) containing 10 mg/mL Heat killed mycobacteria toxin was sufficiently mixed, and then 100 μL was taken and intradermally injected into the upper part of the tail of Lewis rat to induce arthritis. After 10 days, the length of the ankle circumference of rats was measured, and then the rats were grouped and used in the experiment. Each compound was intraperitoneally injected twice a day. The clinical score, the length of the ankle circumference, and the weight were measured twice a week after the administration of the compounds. The clinical scores were assigned from 0 to 4 based on the thesis of Woods, etc. (J. Immunology, 1214-1222, 2001), and the total clinical score was determined by evaluating the feet of each rat and summing up the scores (normal: 0, most severe edema: 16). The length of the ankle circumference was calculated based on the formula of 2×3.14(√(a^2+b^2/2)) after measuring top-bottom sides (a) of the foot and lateral sides (b) of the foot. The final value was determined by averaging the calculated values of each foot.

[7] = target: HDAC1 (Homo sapiens, UniProt Q13547); assay: HDAC panel by Reaction Biology Corp., HDAC 1; type: biochemical; parameters: Reaction Biology Corp; conditions: Table 15, Reaction Biology Corp.; read-out: HDAC1 inhibitory activity
Text: as §1

HDAC1, sequence (Q13547 whole entry): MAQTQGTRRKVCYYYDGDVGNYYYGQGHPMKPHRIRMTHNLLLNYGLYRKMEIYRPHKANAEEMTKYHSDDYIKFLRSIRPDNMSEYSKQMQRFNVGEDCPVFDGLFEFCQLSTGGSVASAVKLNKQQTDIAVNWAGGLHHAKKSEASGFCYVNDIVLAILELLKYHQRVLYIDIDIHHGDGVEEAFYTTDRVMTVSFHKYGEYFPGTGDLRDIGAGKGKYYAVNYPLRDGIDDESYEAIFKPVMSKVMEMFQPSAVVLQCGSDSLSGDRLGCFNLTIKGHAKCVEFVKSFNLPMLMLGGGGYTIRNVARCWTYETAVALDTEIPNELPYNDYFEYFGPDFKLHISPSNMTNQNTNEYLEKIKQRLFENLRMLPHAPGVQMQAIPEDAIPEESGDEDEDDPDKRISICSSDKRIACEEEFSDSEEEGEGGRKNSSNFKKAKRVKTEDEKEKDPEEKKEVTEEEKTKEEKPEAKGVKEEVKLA

IC50 [1] | IC50 [2] | IC50 [7] | SMILES | cell selectivity (tubulin versus histone acetylation) [3] | concentration at which tubulin acetylation (HDAC6) was expressed [3] | concentration at which histone acetylation (HDAC1) was expressed [4] | clinical score ([5]; 10 mg/kg twice a day, score 0 to 16, vehicle group 11.6) | clinical score ([5]; 30 mg/kg twice a day, score 0 to 16, vehicle group 11.6) | arthritis symptoms improved by ([5]; 10 and 30 mg/kg twice a day) | clinical score ([6]; 3 mg/kg twice a day) | clinical score ([6]; 10 mg/kg twice a day) | clinical score ([6]; 30 mg/kg twice a day) | arthritis symptoms improved by [6] | efficacy compared with the control compound Tofacitinib [6] | arthritis symptoms improved by ([5]; different concentrations (doses not given)) | clinical score ([5]; different concentrations, first value listed (dose not given), vehicle group 6.7) | clinical score ([5]; different concentrations, second value listed (dose not given), vehicle group 6.7)
1.47 µM | 0.78 µM | 160 nM | O=C(NO)c1ccc(CN(C(=O)N2CCOCC2)c2cccc(Br)c2)cc1 [Compound 255, N-(3-bromophenyl)-N-(4-(hydroxycarbamoyl)benzyl)morpholine-4-carboxamide] | excellent cell selectivity | about 10 nM | 1 µM | 5.2 | 6.5 | more than 50% | 3.0 | 2.6 | 0.7 | 40 to 90% | equivalent efficacy |  |  | 
16.2 µM | 8.42 µM | 2120 nM | O=C(NO)c1ccc(CN(C(=O)N2CCOCC2)c2cccc(C(F)(F)F)c2)cc1 [Compound 374, N-(4-(hydroxycarbamoyl)benzyl)-N-(3-(trifluoromethyl)phenyl)morpholine-4-carboxamide] | excellent cell selectivity | about 10 nM | 10 µM |  |  |  | 2.5 | 0.8 | 1.3 | 70 to 90% | equivalent efficacy | more than 60% | 2.8 | 2.5
